Laboratory results taken from patent US12138256B2, “Treatment of cardiopulmonary disorders” (Bayer Aktiengesellschaft, priority 2021, dated 2024).

Test system: sGC (cGMP)
Test: Phase I, healthy male subjects, 14 days inhalation: cGMP concentration (C-4.2)
Type: in vivo, human
Conditions: for cGMP change from baseline / cGMP concentration, mean +/− SD: 1000 μg
Procedure: Healthy white male subjects, aged 18 to 45 years and with a body mass index (BMI) above/equal 18.5 and below/equal 29.9 kg/m2 were treated in a clinical pharmacological phase I study for 14 days with inhaled once daily doses of 1000 μg (nominal dose) or Placebo of dry powder of example 4. The subjects inhaled the drug powder from capsules (see under D-1, e.g. tables 17 and 20) inserted into a handheld inhalation device by one deep inhalative breath into the deep parts of the lung. The intended substantial reduction of increased blood pressure in the central pulmonary blood vessels cannot be evaluated in subjects without pathophysiological impairment of lung function. As surrogate for drug concentration in the lung, plasma concentrations over time have been analysed. […] Drug activity/target engagement in healthy men was controlled in the healthy subjects by analysing blood samples for cGMP. Results are shown in as mean in table C4.2.1 and change to baseline in FIG. 76 and table C4.2.2.

[1] = −0 D 09 H 00 M (pretreatment day)
[2] = −0 D 12 H 00 M (pretreatment day)
[3] = −0 D 16 H 00 M (pretreatment day)
[4] = −0 D 18 H 00 M (pretreatment day)
[5] = −0 D 20 H 00 M (pretreatment day)
[6] = −0 D 22 H 00 M (pretreatment day)

With `O=C(O)c1ccc(CCN(CCc2ccccc2OCc2ccc(-c3ccc(C(F)(F)F)cc3)cc2Cl)[C@H]2CCCc3nc(C(=O)O)ccc32)cc1` [example 4, (5S)-{[2-(4-Carboxyphenyl)ethyl][2-(2-{[3-chloro-4′-(trifluoromethyl)biphenyl-4-yl]methoxy}phenyl)-ethyl]amino}-5,6,7,8-tetrahydroquinoline-2-carboxylic acid] the “time until maximum cGMP values were reached” value (1000 μg once daily) was 7 days, the “time until steady state of cGMP concentration” value (1000 μg once daily) was no more than 11 days and the cGMP change from baseline (0 D 02 H 00 M) was 4840 pM. The cGMP concentration, mean +/− SD (0 D 02 H 00 M) was 9170 pM, the cGMP change from baseline (0 D 04 H 00 M) was 7290 pM and the cGMP concentration, mean +/− SD (0 D 04 H 00 M) was 11600 pM. The cGMP change from baseline (0 D 06 H 00 M) was 9950 pM, the cGMP concentration, mean +/− SD (0 D 06 H 00 M) was 14300 pM and the cGMP change from baseline (0 D 08 H 00 M) was 10600 pM. It also gave a cGMP concentration, mean +/− SD (0 D 08 H 00 M) of 14900 pM, a cGMP change from baseline (0 D 12 H 00 M) of 7530 pM and a cGMP concentration, mean +/− SD (0 D 12 H 00 M) of 11800 pM. For the same compound, the cGMP change from baseline (0 D 15 H 00 M) was 6740 pM, the cGMP concentration, mean +/− SD (0 D 15 H 00 M) was 11100 pM and the cGMP change from baseline (1 D 00 H 00 M) was 2980 pM. For the same compound, the cGMP concentration, mean +/− SD (1 D 00 H 00 M) was 7310 pM, the cGMP change from baseline (2 D 00 H 00 M) was 4550 pM and the cGMP concentration, mean +/− SD (2 D 00 H 00 M) was 8880 pM. For the same compound, the cGMP change from baseline (2 D 03 H 00 M) was 13000 pM, the cGMP concentration, mean +/− SD (2 D 03 H 00 M) was 17300 pM and the cGMP change from baseline (2 D 08 H 00 M) was 16400 pM. The cGMP concentration, mean +/− SD (2 D 08 H 00 M) was 20800 pM, the cGMP change from baseline (2 D 12 H 00 M) was 12600 pM and the cGMP concentration, mean +/− SD (2 D 12 H 00 M) was 16900 pM. For the same compound, the cGMP change from baseline (3 D 00 H 00 M) was 5160 pM, the cGMP concentration, mean +/− SD (3 D 00 H 00 M) was 9490 pM and the cGMP change from baseline (4 D 00 H 00 M) was 6360 pM. For the same compound, the cGMP concentration, mean +/− SD (4 D 00 H 00 M) was 10700 pM, the cGMP change from baseline (5 D 00 H 00 M) was 5920 pM and the cGMP concentration, mean +/− SD (5 D 00 H 00 M) was 10300 pM. It also gave a cGMP change from baseline (6 D 00 H 00 M) of 5090 pM, a cGMP concentration, mean +/− SD (6 D 00 H 00 M) of 9420 pM and a cGMP change from baseline (6 D 03 H 00 M) of 13400 pM. For the same compound, the cGMP concentration, mean +/− SD (6 D 03 H 00 M) was 17700 pM, the cGMP change from baseline (6 D 08 H 00 M) was 20100 pM and the cGMP concentration, mean +/− SD (6 D 08 H 00 M) was 24500 pM. It also gave a cGMP change from baseline (6 D 12 H 00 M) of 13900 pM, a cGMP concentration, mean +/− SD (6 D 12 H 00 M) of 18200 pM and a cGMP change from baseline (7 D 00 H 00 M) of 6180 pM. It also gave a cGMP concentration, mean +/− SD (7 D 00 H 00 M) of 10500 pM, a cGMP change from baseline (8 D 00 H 00 M) of 6200 pM and a cGMP concentration, mean +/− SD (8 D 00 H 00 M) of 10500 pM. The cGMP change from baseline (9 D 00 H 00 M) was 6580 pM, the cGMP concentration, mean +/− SD (9 D 00 H 00 M) was 10900 pM and the cGMP change from baseline (10 D 00 H 00 M) was 6450 pM. It also gave a cGMP concentration, mean +/− SD (10 D 00 H 00 M) of 10800 pM, a cGMP change from baseline (10 D 03 H 00 M) of 12700 pM and a cGMP concentration, mean +/− SD (10 D 03 H 00 M) of 17100 pM. The cGMP change from baseline (10 D 08 H 00 M) was 17500 pM, the cGMP concentration, mean +/− SD (10 D 08 H 00 M) was 21900 pM and the cGMP change from baseline (10 D 12 H 00 M) was 13000 pM. It also gave a cGMP concentration, mean +/− SD (10 D 12 H 00 M) of 17300 pM, a cGMP change from baseline (11 D 00 H 00 M) of 6940 pM and a cGMP concentration, mean +/− SD (11 D 00 H 00 M) of 11300 pM. For the same compound, the cGMP change from baseline (12 D 00 H 00 M) was 8060 pM, the cGMP concentration, mean +/− SD (12 D 00 H 00 M) was 12400 pM and the cGMP change from baseline (12 D 22 H 00 M) was 6950 pM. The cGMP concentration, mean +/− SD (12 D 22 H 00 M) was 11300 pM, the cGMP change from baseline (13 D 02 H 00 M) was 9120 pM and the cGMP concentration, mean +/− SD (13 D 02 H 00 M) was 13400 pM. The cGMP change from baseline (13 D 04 H 00 M) was 12900 pM, the cGMP concentration, mean +/− SD (13 D 04 H 00 M) was 17300 pM and the cGMP change from baseline (13 D 06 H 00 M) was 17000 pM. The cGMP concentration, mean +/− SD (13 D 06 H 00 M) was 21400 pM, the cGMP change from baseline (13 D 08 H 00 M) was 17700 pM and the cGMP concentration, mean +/− SD (13 D 08 H 00 M) was 22000 pM. It also gave a cGMP change from baseline (13 D 12 H 00 M) of 12900 pM, a cGMP concentration, mean +/− SD (13 D 12 H 00 M) of 17200 pM and a cGMP change from baseline (13 D 15 H 00 M) of 12100 pM. It also gave a cGMP concentration, mean +/− SD (13 D 15 H 00 M) of 16400 pM, a cGMP change from baseline (14 D 00 H 00 M) of 5410 pM and a cGMP concentration, mean +/− SD (14 D 00 H 00 M) of 9740 pM. The cGMP change from baseline (15 D 00 H 00 M) was 2520 pM, the cGMP concentration, mean +/− SD (15 D 00 H 00 M) was 6850 pM and the cGMP change from baseline (15 D 12 H 00 M) was 3040 pM. For the same compound, the cGMP concentration, mean +/− SD (15 D 12 H 00 M) was 7370 pM, the cGMP change from baseline (16 D 00 H 00 M) was 2000 pM and the cGMP concentration, mean +/− SD (16 D 00 H 00 M) was 6330 pM. The cGMP change from baseline (16 D 12 H 00 M) was 2410 pM, the cGMP concentration, mean +/− SD (16 D 12 H 00 M) was 6740 pM and the cGMP change from baseline (17 D 00 H 00 M) was 400 pM. The cGMP concentration, mean +/− SD (17 D 00 H 00 M) was 4730 pM, the cGMP change from baseline (20 D 00 H 00 M) was 1220 pM and the cGMP concentration, mean +/− SD (20 D 00 H 00 M) was 5520 pM. It also gave a cGMP change from baseline (FOLLOW-UP) of 1520 pM, a cGMP concentration, mean +/− SD (FOLLOW-UP) of 5850 pM and a cGMP concentration, mean +/− SD (−0 D 02 H 00 M (prior to first inhalation)) of 4330 pM. The cGMP change from baseline [1] was 224 pM, the cGMP concentration, mean +/− SD [1] was 5490 pM and the cGMP change from baseline [2] was 306 pM. For the same compound, the cGMP concentration, mean +/− SD [2] was 5570 pM, the cGMP change from baseline [3] was 676 pM and the cGMP concentration, mean +/− SD [3] was 5940 pM. The “cGMP change from baseline” value [4] was −252.9 +/− 1345.9, the cGMP concentration, mean +/− SD [4] was 5010 pM and the “cGMP change from baseline” value [5] was −952.9 +/− 1984.7. For the same compound, the cGMP concentration, mean +/− SD [5] was 4310 pM, the “cGMP change from baseline” value [6] was −100.0 +/− 1403.1 and the cGMP concentration, mean +/− SD [6] was 5160 pM. For the same compound, the cGMP concentration, mean +/− SD (−1 D 02 H 00 M (pretreatment day)) was 5260 pM.
